In patent US20040014683A1, “Sugar-derived gellant for hydrogel formation” (priority 2001, published 2004):

Assay: Gel-forming ability test (heat to dissolve, cool to 25° C.)
Assay type: physicochemical
Conditions: 1 mg gelatinizer in water (900 mg) and methanol (100 mg); heated, gradually cooled, left at room temperature approximately 2-5 hours; tube inverted
Experimental: The dodecanoylaminophenol-β-D-glucopyranoside and dodecanoylaminophenol-β-D-galactopyranoside (1 mg of each) obtained in the above experiments were respectively weighed out into test tubes, and a mixed solvent of water (900 mg) and methanol (100 mg) was added. The mixture was heated to ensure complete dissolution. Subsequently, it was gradually cooled, and left at room temperature for approximately 2-5 hours.
The gel-forming ability was evaluated as follows.
The solvent was water (including a small amount of methanol and ethanol), methanol, ethanol, 1-butanol, t-butanol, tetrahydrofuran, chloroform, dichloromethane, n-hexane, ethyl acetate, dimethylformamide or dimethyl sulfoxide.
One of the aforesaid solvents was mixed in a test tube wherein the two types of gelatinizer prepared in the Examples were sealed such that the concentration of gelatinizer was 0.1-3.0 wt %, and this mixture was heated until the solids dissolved. The resulting solution was cooled to 25° C. for one hour. The gelatinizer and solvent were introduced into a test tube capped by a diaphragm, and heated in the oil bath until the solids dissolved. This solution was cooled to 25° C.

Row | Substance | hydrated gel formation
1 | dodecanoylaminophenol-β-D-galactopyranoside | hydrated gel which did not collapse even when inverted
2 | dodecanoylaminophenol-β-D-glucopyranoside | hydrated gel which did not collapse even when inverted
